{"source": "patent US12419918B2", "about": "“Pediococcus acidilactici CCFM6432 for alleviating depression, food fermented thereby and application thereof” (Jiangnan University, priority 2019, dated 2025)", "key": {"depressed mice": {"test_system": "depressed mice", "test": "Elevated plus-maze test", "assay_type": "in vivo, C57BL/6J mice", "conditions": "chronic unpredictable mild stress mice; gavage; activities within 10 min", "experimental": "32 6-week-old male C57BL/6J mice were selected. After one week of adaptation to the environment, the mice were randomly divided into four groups according to body weight: a normal control group, a depression model group, a drug intervention group, and a CCFM6432 intervention group, each containing 8 mice.\nChronic unpredictable stress depression mouse model: 1-2 kinds of stimuli were randomly performed every day, and the performance time of stimuli every day was determined randomly to avoid the circadian rhythm. Each method was used for not more than three times, and the stimuli were performed for five weeks. The stimuli include: (1) fasting for 24 h; (2) water deprivation+empty bottle stimulus for 24 h; (3) tail pinching for 3 min; (4) wet padding for 24 h; (5) immobilization for 1-2 h; (6) 45° tilted cage for 24 h; (7) continuous lighting for 24 h; (8) no padding for 24 h; (9) forced swim for 15 min; and (10) separation for 24 h. […]\nAt the beginning of the test, a mouse was placed into a maze from the central grid facing a closed arm, and its activities within 10 min were recorded. […] The proportion of time spent in the open arms, the proportion of entries in the open arms, and the total number of entries in the elevated plus maze were calculated. […]"}, "[1]": {"test_system": "regulatory T cells (Tregs)", "test": "Regulatory T cells (CD4+CD25+Foxp3+) in spleen by flow cytometry", "assay_type": "in vivo", "conditions": "chronic stress mice; sixth weekend", "experimental": "(§1) The mice in Example 2 were euthanized at the sixth weekend. A fresh mouse spleen (about 50 mg) was taken, 5 mL of a pre-chilled PBS buffer was added, and the mouse spleen was cut, ground, and filtered with a 200-mesh nylon sieve to obtain a tissue cell suspension. 2 mL of an erythrocyte lysate was added for lysis for 4 min, and the lysate was removed by centrifugation at room temperature (300×g, 5 min). The obtained cell precipitate was washed with pre-cooled PBS twice, and resuspended with a certain amount of PBS to obtain a lymphocyte suspension. Antibody labeling of regulatory T cells (Tregs) was performed in accordance with the instructions of an eBioscience Mouse Regulatory T cell Staining Kit (Invitrogen Corporation, Carlsbad, CA, USA). The Tregs (CD4+CD25+Foxp3+) were detected by flow cytometry. The contents of IL-1β, IL-6 and TNF-α in the serum were detected with an ELISA kit."}, "IL-1β, IL-6 and TNF-α": {"test_system": "IL-1β, IL-6 and TNF-α", "test": "IL-1β, IL-6 and TNF-α in the serum by ELISA kit", "assay_type": "in vivo", "conditions": "chronic stress mice; sixth weekend", "experimental": "as §1"}, "intestinal microbiome": {"test_system": "intestinal microbiome", "test": "16S rDNA sequencing of the intestinal microbiome from mouse feces", "assay_type": "in vivo", "conditions": "depressed mice feces", "source_text": "Fresh feces of the mice in Example 2 was taken at the sixth weekend, and total DNA was extracted from the mouse feces sample using an MP feces kit. Specific operation steps are as follows, mainly referring to the kit instructions. The mouse fecal genome was used as a template, V3-V4 fragments of 16S rDNA were amplified using a forward primer 520F (5′-AYTGGGYDTAAAGNG-3′) and a reverse primer 802R (5′-TACNVGGGTATCTAATCC-3′) as primers, and the length of a target fragment was about 247 bp. After the PCR reaction, all PCR samples in which target bands were observed were electrophoresed again, a 2.0% agarose gel was prepared, and electrophoresis was performed at 120 V for 40 min. […] The DNA concentration of the sample was measured according to a Qubit DNA3.0 kit, then a library was constructed according to a TurSeq DNA LT Sample Preparation Kit and instructions thereof, and finally determination was performed on an Illumina Miseq sequencer according to a MiSeq Regent Kit and instructions thereof. […] The sequences with the similarity greater than 97% were defined as a taxonomic unit (Operational Taxonomic Unit, OTU), and the species was determined by a Ribosomal Database Project (RDP) Naïve Bayesclassifier. The α-diversity and β-diversity of the sample were calculated to assess the bacterial diversity of the sample. […] The β-diversity was assessed by principal co-ordinates analysis (PCoA) (FIG. 9C). […]"}}}
{"smiles": "CNCCC(Oc1ccc(C(F)(F)F)cc1)c1ccccc1", "note": "(stereo not shown) [Fluoxetine, fluoxetine]", "values": [{"measurement": "entries and time spent in the open arms", "setting": "depressed mice", "value": "had no effect"}, {"measurement": "immune state (proportion of Tregs in the spleen)", "setting": "[1]", "value": "could significantly improve the immune state"}, {"measurement": "degree of inflammation (IL-1β, IL-6 and TNF-α in the serum)", "setting": "IL-1β, IL-6 and TNF-α", "value": "reduce the degree of inflammation"}, {"measurement": "structure of the intestinal microbiome (β-diversity, PCoA)", "setting": "intestinal microbiome", "value": "could normalize the structure of the intestinal microbiome"}]}
